Source: patent US20190202774A1, “BIARYL COMPOUNDS AS ANTIMICROBIAL AND CHEMOTHERAPEUTIC AGENTS” (priority 2015, published 2019)
Converted amounts (≈) assume the structure as drawn. “Also recorded” adds a separate entry of the source. Where two headings read alike, the source gives them in different places.

How the values were obtained:
[1] = test system: erythrocytes from sheep blood; test: Hemolytic activity
Method: Toxicity of biaryl compounds was tested against erythrocytes as well as eukaryotic epithelial, dermal, and macrophage cell lines in vitro.
Toxicity of lead antimicrobial candidates was tested against erythrocytes, as well as eukaryotic epithelial and dermal cell lines in vitro.

[2] = test system: human dermal fibroblasts (HDF)
Method: (§1) Finally, toxicity of biaryl compounds was tested against human lung airway epithelial cells (16HBE), human dermal fibroblasts, and J774.A1 murine macrophages using an ALAMARBLUE® Cell Viability Assay. Biaryl compounds, C58, acetylated C58 (C58-2), C59, C59-2, C59Na, and C59Li were incubated with cells for 24 hours and an ALAMARBLUE® Cell Viability Assay was performed to determine cell viability relative to untreated controls (FIGS. 13A-13C). Cell viability curves were analyzed using non-linear curve fit to yield the inhibitory concentration at median cell survival (LD50) for all cell lines (Table 3).
(§2) Next, the toxicity of lead candidates was tested against human lung airway epithelial cells (16HBE) and human dermal fibroblasts (HDF) using an alamarBlue® Cell Viability Assay.

[3] = test system: human lung airway epithelial cells (16HBE)
Method: as §1, §2

MRSA SA LL06 = test: Growth curves (OD650, 18-h), MRSA SA LL06; format: cell-based, Staphylococcus aureus; details: SA LL06, 18-h
[4] = test system: 21 S. epidermidis strains; test: MIC90/MBC90 broth microdilution against 21 S. epidermidis strains; format: cell-based, Staphylococcus epidermidis
From the text: We are currently in the process of evaluating the MICs and MBCs for 5-32.

38 MRSA strains [5] = test: microbe, parasite or virus in culture; details: Staphylococcus aureus
[6] = test system: R. equi strains 701+, 701−, 703, and 5331; test: MIC/MBC broth microdilution against R. equi; format: cell-based, Rhodococcus equi
[7] = test system: eukaryotic cell lines tested; test: ALAMARBLUE Cell Viability Assay, LD50 quoted in text (cell line not given); details: 24 hours; cell line not named in the sentence (Table 3 not given)
Method: as §1

MRSA strain USA300 [8] = test: DiSC3(5) membrane permeabilization; format: cell-based, Staphylococcus aureus; details: 0.1 and 0.5 μg/mL
Method: Biaryl compounds and their analogues have been reported to be membrane active agents (Isnansetyo and Kamei, 2003 and Kamei et al., 2003). An experiment was performed to verify the membrane permeabilization activity of biaryl compound. C58 using a fluorescent dye, 3,3′-Dipropylthiacarbocyanine iodide (DiSC3(5)). The fluorescence signal from DiSC3(5) is in a quenched state when it interacts with the hydrophobic region of the cell membrane. Upon disruption of the membrane, DiSC3(5) is released and regains its fluorescent activity, which is measured as a fluorescence signal (RFU).

[9] = test system: E. faecalis strains 49532 and 51575; test: MIC/MBC broth microdilution against E. faecalis; format: cell-based, Enterococcus faecalis
A549 = test: Lung cancer cell survival, A549; format: cell-based; details: 72 hour incubation, non-linear curve fit
Method: (§3) The IC50 values generated using a non-linear curve fit with lung cancer cell lines, A549, H460, H2122, and H2073 are listed in Table 10. Experiments were performed using C58, C58-2, C59, C59-2, C119, and acetylated C119 (C119-2). […] Additionally, these concentrations are clinically achievable for treatment of lung cancer and a detailed structure activity relationship experiments needs to be performed to identify promising anticancer candidates.

H2122 = test: Lung cancer cell survival, H2122; format: cell-based; details: 72 hour incubation, non-linear curve fit
Method: as §3

H460 = test: Lung cancer cell survival, H460; format: cell-based; details: 72 hour incubation, non-linear curve fit
Method: as §3

[10] = test system: MRSA strains SAD05 and 0632 in a biofilm; test: MBEC High-throughput biofilm assay; format: cell-based, Staphylococcus aureus; details: six-hour incubation, SAD05 and 0632
H2073 = test: Lung cancer cell survival, H2073; format: cell-based; details: 72 hour incubation, non-linear curve fit
Method: as §3

MRSA strain USA 300 = test: Growth curves (OD650, 18-h), MRSA USA 300; format: cell-based, Staphylococcus aureus; details: stationary phase USA 300, 18-h, compared with non-treated control
Method: The rate of bacterial growth in presence of antimicrobial candidates, C58, C59, C59Na, or 4-76, was performed using stationary phase MRSA, USA 300 and SA LL06, or S. epidermidis, M0881, and compared with SoC antimicrobial, vancomycin. In addition, these growth rates were compared with the kill kinetics described earlier (FIGS. 4 & 5). […] A reduction in bacterial growth rate, represented by a lower absorbance at OD650, can be observed with C59 and C59Na at concentrations as low as 0.125×MIC compared with non-treated control. […] However, in the kill kinetics experiments, vancomycin fails to eradicate stationary phase MRSA at concentrations up to 2×MIC. This anomaly can be explained by the different experimental conditions between the kill kinetics and growth curve experiments; bacterial samples are grown with constant shaking on an orbital shaker for a kill kinetics experiment but not for a growth curve experiment.
Finally, the antimicrobial efficacy of enantiomers of compound 4-76 were evaluated against log-phase MRSA strain USA 300, as described earlier.

[11] = test system: MRSA strains USA300, 0606, 0608, 0634, 0641, and 0646; test: MIC/MBC against six MRSA strains (variants of C58/C59, pH, DMSO); format: cell-based, Staphylococcus aureus
Method: Six MRSA strains, USA300, 0606, 0608, 0634, 0641, and 0646 were chosen based on their activity against biaryl compounds and vancomycin to determine structure-activity relationship of biaryl compounds. The effect of phenolic group on the activity of biaryl compounds was tested by modifying C59. First, the phenolic group was protected by acetylation to yield an acetylated C59 (C59-2) (FIG. 7B). Additional variants of C59, in the form of sodium and lithium salts were synthesized by incubation with sodium hydroxide and lithium hydroxide (FIGS. 7C and 7D). Antimicrobial activity of these deprotonated, water-soluble sodium (C59Na) and lithium (C59Li) salts, and acetylated derivative of C59 was tested against 6 MRSA strains and compared to the parent compound, C59 (FIGS. 8A-8D). Results from this comparative experiment indicate the contribution of phenolic group/phenoxide ion to the antimicrobial activity.
Further investigation into activity of these compounds under acidic pH conditions also points towards the role of phenolic group. An effective antimicrobial should be active under a wide range of pH conditions, including the physiological pH of 7.4. Localized pH in an infection is often lower than the physiological pH, and may be as low as 5.5 (Radovic-Moreno et al., 2012). Additionally, pH varies among organs (Radovic-Moreno et al., 2012). For example, pH in the bladder or on the skin is found to be between 4.5 and 8.0, or 4.0 and 5.5, respectively (Radovic-Moreno et al., 2012). […] The activity of all biaryl compounds is enhanced by at least four- to eight-fold with reduction in pH from 7.4 to 5.5.
Water soluble sodium and lithium salts of C59 (C59Na and C59Li) and their antimicrobial activity against six MRSA strains are reported above. A sodium salt of C58 (C58Na) was prepared and evaluated efficacy of this compound against these six MRSA strains. […] The poor activity of C58Na may be a result of poor stability of C58Na compared with C59Na and C59Li.

[12] = test system: MRSA strains USA300 and SALL06; test: Kill kinetics with stationary-phase MRSA; format: cell-based, Staphylococcus aureus; details: stationary-phase USA300 and SALL06, up to 24 hours
[13] = test system: seven S. pyogenes strains; test: MIC/MBC against panel of S. pyogenes strains; format: cell-based, Streptococcus pyogenes; details: range over seven S. pyogenes strains
Method: The activity of compounds against Gram-positive pathogens, S. pyogenes and S. pneumoniae, identified through the preliminary screen (FIG. 15) was evaluated against a panel of these pathogens.

38 MRSA strains [14] = details: MH broth
MRSA strain USA300 [15] = test: Kill kinetics with planktonic log-phase MRSA; format: cell-based, Staphylococcus aureus; details: log-phase USA300, 24 hours
erythrocytes = details: 50 μg/mL, two hour incubation; cited from earlier work
[16] = Rhodococcus (subgen. Prescottella) equi, strain 701+
[17] = Rhodococcus (subgen. Prescottella) equi, strain 701−
[18] = Rhodococcus (subgen. Prescottella) equi, strain 703
[19] = Rhodococcus (subgen. Prescottella) equi, strain 5331
[20] = 24-h incubation, non-linear curve fit

Compound | onset of hemolysis ([1]; sheep, 1 h) [µg/mL] | lowest concentration with reduction in bacterial growth rate (MRSA SA LL06) [×MIC] | LD50 (inhibitory concentration at median cell survival) [7] [µg/mL] | MBC ([9]; strain 51575) [µg/mL] | MIC ([9]; strain 51575) [µg/mL] | A549 LD50 (A549) [µM] | H2122 LD50 (H2122) [µM] | H460 LD50 (H460) [µM] | H2073 LD50 (H2073) [µM] | MBC ([6]; strain 701+) [µg/mL] | MIC ([6]; strain 701+) [µg/mL] | MBC ([6]; strain 701−) [µg/mL] | MIC ([6]; strain 701−) [µg/mL] | MBC ([6]; strain 703) [µg/mL] | MIC ([6]; strain 703) [µg/mL] | MBC ([6]; strain 5331) [µg/mL] | MIC ([6]; strain 5331) [µg/mL] | lowest concentration with reduction in bacterial growth rate (lower OD650) (MRSA strain USA 300) [×MIC] | MBC ([9]; strain 49532) [µg/mL] | MIC ([9]; strain 49532) [µg/mL] | also measured
COc1c(C)cc(O)c(-c2c(O)ccc3ccccc23)c1C | – | – | – | – | – | – | – | – | – | – | – | – | – | – | – | – | – | – | – | – | melting point: 190 to 191 °C
C[C@@H]1[C@H](O)[C@@H](C)/C=C/C=C/C=C/C=C/C=C/C=C/C=C/[C@H](O[C@@H]2O[C@H](C)[C@@H](O)[C@H](N)[C@@H]2O)C[C@@H]2O[C@](O)(C[C@@H](O)C[C@@H](O)[C@H](O)CC[C@@H](O)C[C@@H](O)CC(=O)O[C@H]1C)C[C@H](O)[C@H]2C(=O)O [Amphotericin B, reference compound] | 2 | – | – | – | – | – | – | – | – | – | – | – | – | – | – | – | – | – | – | – | concentration resulting in 100% hemolysis ([1]; sheep, 1 h): 8000 ng/mL; Fibroblasts LD50 ([2]; human, 24 h): 2.2 µg/mL; 16HBE LD50 ([3]; human, 24 h): 12.6 µg/mL
Oc1c(Br)cc(Br)cc1-c1cc(Br)cc(Br)c1O [C58, bromophene] | > 64 | 0.125 | 60 | 12 (≈ 23.9 µM) | 6 (≈ 12 µM) | 120 | 98 | 42 | 32 | – | – | – | – | – | – | – | – | – | – | – | MIC90 ([4]; Staphylococcus epidermidis): 2 µg/mL (≈ 3.99 µM); MBC ([4]; Staphylococcus epidermidis, read-out: MBC90): 8 µg/mL (≈ 15.9 µM); MIC90 (38 MRSA strains [5]): 2 µg/mL (≈ 3.99 µM); MBC (38 MRSA strains [5]; read-out: MBC90): 4 µg/mL (≈ 7.97 µM); MBC [6, 16]: 4 µg/mL (≈ 7.97 µM); MIC [6, 16]: 1 µg/mL (≈ 1.99 µM); MBC [6, 17]: 8 µg/mL (≈ 15.9 µM); MIC [6, 17]: 1 µg/mL (≈ 1.99 µM); MBC [6, 18]: 8 µg/mL (≈ 15.9 µM); MIC [6, 18]: 0.5 µg/mL (≈ 0.996 µM); MBC [6, 19]: 4 µg/mL (≈ 7.97 µM); MIC [6, 19]: 1 µg/mL (≈ 1.99 µM); membrane disruption (DiSC3(5) fluorescence) (MRSA strain USA300 [8]): positive membrane disruption; MBC ([9]; Enterococcus faecalis): 12 µg/mL (≈ 23.9 µM); MIC ([9]; Enterococcus faecalis): 6 µg/mL (≈ 12 µM); onset of hemolysis ([1]; sheep, 18 h): 16 to 20 µg/mL; concentration that completely eradicates bacteria in a biofilm [10]: 16 µg/mL
[Na+].[Na+].[O-]c1c(Cl)cc(Cl)cc1-c1cc(Cl)cc(Cl)c1[O-] [C59Na] | – | – | – | 24 | 12 | – | – | – | – | 16 | 2 | 32 | 8 | 8 | 1 | 8 | 2 | 0.125 | 24 | 12 | activity in the absence of DMSO versus with 2.5% DMSO [11]: at least comparable activity; antimicrobial activity (MIC and MBC) compared to the parent compound [11]: enhanced activity; also recorded: superior activity over C59; 16HBE LD50 [3, 20]: 30 µg/mL
Oc1c(Cl)cc(Cl)cc1-c1cc(Cl)cc(Cl)c1O [C59] | – | 0.125 | 40 | 16 (≈ 49.4 µM) | 8 (≈ 24.7 µM) | 123 | 91 | 37 | 43 | 4 (≈ 12.3 µM) | 2 (≈ 6.17 µM) | 16 (≈ 49.4 µM) | 2 (≈ 6.17 µM) | 8 (≈ 24.7 µM) | 2 (≈ 6.17 µM) | 4 (≈ 12.3 µM) | 2 (≈ 6.17 µM) | 0.125 | 16 (≈ 49.4 µM) | 8 (≈ 24.7 µM) | MBC90 ([4]; 21 S. epidermidis strains): 12 µg/mL (≈ 37 µM); MIC90 ([4]; 21 S. epidermidis strains): 4 µg/mL (≈ 12.3 µM); eradication of stationary-phase bacteria [12]: continues to eradicate bacteria; MBCs [13]: 12 to 24 µg/mL; MICs [13]: 2 to 12 µg/mL; MBC90 (38 MRSA strains [14]): 6 µg/mL (≈ 18.5 µM); MIC90 (38 MRSA strains [14]): 2 µg/mL (≈ 6.17 µM); concentration of complete killing (MRSA strain USA300 [15]): 8 µg/mL; dose response of bacterial eradication (MRSA strain USA300 [15]): dose-dependent manner; lowest concentration with reduction in bacterial burden (MRSA strain USA300 [15]; compared with untreated bacteria): 0.5 µg/mL
Gramicidin D [reference compound] | – | – | – | – | – | – | – | – | – | – | – | – | – | – | – | – | – | – | – | – | concentration resulting in 100% hemolysis ([1]; 1-h incubation): 48000 ng/mL; onset of hemolysis ([1]; 1-h incubation): 2 µg/mL; hemolysis (erythrocytes): 60%; Fibroblasts LD50 [2, 20]: 3.9 µg/mL; 16HBE LD50 [3, 20]: 20.5 µg/mL
